# Source: patent US20230365492A1, “LITHIUM ORGANIC ACID-AMINO ACID SALT, AND CRYSTAL FORM, COMPOSITION AND APPLICATION THEREOF” (ANYU BIOTECHNOLOGY (HANGZHOU) CO., LTD., priority 2020, published 2023)
# “Also recorded” adds a separate entry of the source.
# Experiments:
# [1] = biological target: GSK-3β (Mus musculus, UniProt Q9WV60); settings: APP/PS1 mice, gavage, 0.02 and 0.08 mmol/mouse, 4 hours after administration
# Procedure: Brain tissues were extracted, and a homogenate of the brain tissues was prepared.
# [2] = biological target: GSK-3β (Cricetulus griseus, UniProt A0A061I155); settings: CHO cells, treated 2 hours, 0-50 mM (vs lithium isobutyrate) or 0-90 mM (vs lithium carbonate), Western blot, GAPDH reference
# Sequence of GSK-3β (Cricetulus griseus, UniProt A0A061I155) (A0A061I155 1-428): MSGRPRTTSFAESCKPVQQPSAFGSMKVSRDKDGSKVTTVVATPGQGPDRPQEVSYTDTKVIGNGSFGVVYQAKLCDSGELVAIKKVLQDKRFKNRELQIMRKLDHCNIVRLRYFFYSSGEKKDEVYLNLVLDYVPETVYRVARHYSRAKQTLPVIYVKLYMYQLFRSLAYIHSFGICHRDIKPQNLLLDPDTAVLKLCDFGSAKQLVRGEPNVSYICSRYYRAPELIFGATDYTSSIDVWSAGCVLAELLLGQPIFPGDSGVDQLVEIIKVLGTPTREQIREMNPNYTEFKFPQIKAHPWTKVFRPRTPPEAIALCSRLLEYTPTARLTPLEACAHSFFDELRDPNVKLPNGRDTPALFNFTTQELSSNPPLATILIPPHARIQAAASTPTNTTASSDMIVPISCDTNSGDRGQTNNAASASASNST
# Excerpt: The cells were continuously subjected to lysis by an RIPA buffer containing a protease inhibitor, followed by detection by Western blot with phosphorylated GSK-3β (Ser9) or a total GSK-3β antibody as an antibody.
# GAPDH (glyceraldehyde-3-phosphate dehydrogenase) was used as an internal reference protein.
# [3] = system: Notch protein; settings: SH-SY5Y cells, 3 hours, concentration of less than 50 mM, Western blot
# Excerpt: GAPDH was used as an internal reference protein. A Notch protein is an important signaling molecule at the downstream of GSK-3, and plays an important positive role in regulating the proliferation and survival of cells.
# [4] = system: tau protein; settings: SH-SY5Y cells, 3 hours, Western blot
# Excerpt: (§1) GAPDH was used as an internal reference protein.
# [5] = system: β-catenine; settings: CHO cells, 0-50 mM, 2 hours, Western blot
# Excerpt: as §1
# [6] = system: Kunming mice
# Procedure: According to the Horn's method, 40 Kunming mice (with the weight of 19.8-22 g, including half male mice and half female mice) were divided into four groups at an equal ratio of 2.15, including a 464 mg/kg dose group, a 1,000 mg/kg dose group, a 2,150 mg/kg dose group and a 4,640 mg/kg dose group (each group was orally administrated at one time and includes 10 mice with half male mice and half female mice). […] 24 hours later, poisoning symptoms, occurrence time and death time of the experimental animals were observed every day for an observation period of 14 days. Dead animals and other animals sacrificed within 14 days were subjected to gross anatomy. When gross pathological changes were observed by naked eyes, pathological examination was performed.
# [7] = system: HEK293 cells; settings: 5 mM, 4 hours, confocal microscope
# Sequence of GSK-3β (Mus musculus, UniProt Q9WV60) (Q9WV60 whole entry): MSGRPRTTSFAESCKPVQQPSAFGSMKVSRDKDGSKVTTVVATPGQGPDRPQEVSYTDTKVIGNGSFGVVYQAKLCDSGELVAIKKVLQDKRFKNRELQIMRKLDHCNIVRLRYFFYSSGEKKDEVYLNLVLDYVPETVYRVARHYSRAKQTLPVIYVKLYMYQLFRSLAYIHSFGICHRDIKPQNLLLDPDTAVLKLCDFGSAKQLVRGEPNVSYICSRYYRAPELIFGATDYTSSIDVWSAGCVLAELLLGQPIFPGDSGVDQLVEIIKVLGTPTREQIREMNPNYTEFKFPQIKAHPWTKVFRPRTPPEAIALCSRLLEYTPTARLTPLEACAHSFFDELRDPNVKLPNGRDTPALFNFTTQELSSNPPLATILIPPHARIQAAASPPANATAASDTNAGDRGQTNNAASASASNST
Compound,effect on phosphorylated GSK-3β (Ser9) expression in brain tissues [1],inhibition of the activity of GSK-3β (phosphorylated GSK-3β (Ser9) expression) [2],Notch protein expression [3],total tau protein expression ([4]; 0-50 mM),concentration at which an effect on total tau protein expression is seen [4] [mM],cell survival related protein (β-catenine) expression [5],"symptoms of experimental animals ([6]; oral, 464 mg/kg and 1,000 mg/kg dose groups)","symptoms and death of experimental animals ([6]; oral, 2,150 mg/kg and 4,640 mg/kg dose groups, within 24 hours)",change in morphology of HEK293 cells [7]
lithium isobutyrate-L-proline salt,significantly better than that of the lithium carbonate,"significantly decreased phosphorylated GSK-3β (Ser9) expression in a dose-dependent manner; also recorded: dose-dependent inhibition effect on the GSK-3β, and the inhibition effect is stable",no influence on the Notch expression,significantly decrease the total tau protein expression in a concentration-dependent manner,3.125,significantly increases the cell survival related protein (β-catenine) expression in a dose-dependent manner,,,
"O=C([O-])[O-].[Li+].[Li+] [lithium carbonate, reference compound]",,obviously lower than that of the lithium isobutyrate-L-proline salt,obvious inhibition effect on the Notch protein expression,,6.25,,no abnormalities,abnormal posture symptoms within 24 hours and are all dead,obvious change in morphology
